{
  "source": "patent US20240132484A1",
  "about": "“BROAD SPECTRUM ANTIVIRAL COMPOUNDS TARGETING THE SKI COMPLEX” (priority 2020, published 2024)",
  "key": {"[1]": {"system": "Influenza virus", "experiment": "organism not typed", "type": "cell-based, influenza A virus", "settings": "for Flu titer (pfu/ml) / Influenza virus titer, 10 μM / Influenza virus titer, 50 μM: plaque assay; for Avg PFU/ml: average of first and second experiment; for Influenza virus titer, 10 μM / Influenza virus titer, 50 μM: upper part of table (FIG. 5 data); for 10 μM treatment, Average / 50 μM treatment Average: average of replicates"}, "[2]": {"system": "cells (nuclei count)"}, "[3]": {"system": "SARS2", "type": "cell-based, SARS-CoV-2"}, "[4]": {"settings": "50 μM compound, replicate 1, DMSO (0.5%) control run per batch"}},
  "data": [
    {"molecule": "COc1cc(CNCCC2CCN(C)CC2)ccc1OCC(O)CN(C)C1CCCCC1", "note": "(centres unmarked) [Compound 28236358, 1-[cyclohexyl(methyl)amino]-3-[2-methoxy-4-({[2-(1-methyl-4-piperidinyl)ethyl]amino}methyl)phenoxy]-2-propanol]", "values": [
      {"measurement": "Flu titer (pfu/ml)", "setting": "[1]; 1 μM compound, A549 cells", "result": 70000, "unit": "pfu/ml"},
      {"measurement": "Flu titer (pfu/ml)", "setting": "[1]; 10 μM compound, A549 cells", "result": 70000, "unit": "pfu/ml"},
      {"measurement": "Flu titer (pfu/ml)", "setting": "[1]; 50 μM compound, A549 cells", "result": 39000, "unit": "pfu/ml"}
    ]},
    {"molecule": "COc1ccc(CNC2CCCCC2)c(OCC(O)CN2CCN(C)CC2)c1", "note": "(centres unmarked) [Compound 18-10]", "values": [
      {"measurement": "first experiment", "setting": "[1]; 10 μM screen", "result": 40000, "unit": "PFU/ml"},
      {"measurement": "second experiment", "setting": "[1]; 10 μM screen", "result": 2600, "unit": "PFU/ml"},
      {"measurement": "Avg PFU/ml", "setting": "[1]; 10 μM screen", "result": 21300, "unit": "PFU/ml"},
      {"measurement": "Influenza virus titer, 10 μM", "setting": "[1]; 10 μM", "result": 40000, "unit": "PFU/virus/ml"},
      {"measurement": "first experiment PFU/ml", "setting": "[1]; 50 μM screen", "result": 16000, "unit": "PFU/ml"},
      {"measurement": "second experiment PFU/ml", "setting": "[1]; 50 μM screen", "result": 1900, "unit": "PFU/ml"},
      {"measurement": "Avg PFU/ml", "setting": "[1]; 50 μM screen", "result": 8950, "unit": "PFU/ml"},
      {"measurement": "Influenza virus titer, 50 μM", "setting": "[1]", "result": 16000, "unit": "PFU/virus/ml"}
    ]},
    {"molecule": "CCN1CCN(CC(O)COc2cccc(CN(C)Cc3ccccn3)c2)CC1", "note": "(centres unmarked) [Compound 10306628, 1-(4-ethyl-1-piperazinyl)-3-(3-{[methyl(2-pyridinylmethyl)amino]methyl}phenoxy)-2-propanol]", "values": [
      {"measurement": "Flu titer (pfu/ml)", "setting": "[1]; 1 μM compound, A549 cells", "result": 70000, "unit": "pfu/ml"},
      {"measurement": "Flu titer (pfu/ml)", "setting": "[1]; 10 μM compound, A549 cells", "result": 85000, "unit": "pfu/ml"},
      {"measurement": "Flu titer (pfu/ml)", "setting": "[1]; 50 μM compound, A549 cells", "result": 42000, "unit": "pfu/ml"}
    ]},
    {"molecule": "O=C(NC1CCCCCC1)c1cn[nH]c1-c1ccc2c(c1)OCCO2", "note": "[UMB98]", "values": [
      {"measurement": "10 μM treatment, Average", "setting": "[1]", "result": 0},
      {"measurement": "10 μM treatment", "setting": "[1]; replicate 2", "result": 0},
      {"measurement": "50 μM treatment Average", "setting": "[1]; 50 μM compound", "result": 0},
      {"measurement": "50 μM treatment", "setting": "[1]; [4]", "result": 0},
      {"measurement": "50 μM treatment", "setting": "[1]; 50 μM compound, replicate 2", "result": 0}
    ]},
    {"molecule": "CCCCC(=O)Nc1cccc(NC(=O)COc2ccc(C3CCCCC3)cc2)c1", "note": "[Compound 7973169, N-(3-{[2-(4-cyclohexylphenoxy)acetyl]amino}phenyl)pentanamide]", "values": [
      {"measurement": "Flu titer (pfu/ml)", "setting": "[1]; 1 μM compound, A549 cells", "result": 101000, "unit": "pfu/ml"},
      {"measurement": "Flu titer (pfu/ml)", "setting": "[1]; 10 μM compound, A549 cells", "result": 66000, "unit": "pfu/ml"},
      {"measurement": "Flu titer (pfu/ml)", "setting": "[1]; 50 μM compound, A549 cells", "result": 110000, "unit": "pfu/ml"}
    ]},
    {"molecule": "COc1ccc(CNCCc2ccccc2F)c(OCC(O)CN2CCN(C)CC2)c1", "note": "(centres unmarked) [UMBCADD-0018, 1-[2-({[2-(2-fluorophenyl)ethyl]amino}methyl)-5-methoxyphenoxy]-3-(4-methyl-1-piperazinyl)-2-propanol]", "values": [
      {"measurement": "inhibition of Influenza virus replication", "setting": "[1]; 10 μM, A549 cells", "result": "over 20 fold"},
      {"measurement": "antiviral activity against IAV infection", "setting": "[1]; screening, A549 cells", "result": "effective at 50 μM, 10 μM and 1 μM"}
    ]},
    {"molecule": "COc1ccc(CNC2CCCC2)c(OCC(O)CN2CCN(C)CC2)c1", "note": "(centres unmarked) [Compound 18-1]", "values": [
      {"measurement": "first experiment", "setting": "[1]; 10 μM screen", "result": 60000, "unit": "PFU/ml"},
      {"measurement": "second experiment", "setting": "[1]; 10 μM screen", "result": 19000, "unit": "PFU/ml"},
      {"measurement": "Avg PFU/ml", "setting": "[1]; 10 μM screen", "result": 39500, "unit": "PFU/ml"},
      {"measurement": "Influenza virus titer, 10 μM", "setting": "[1]; 10 μM", "result": 60000, "unit": "PFU/virus/ml"},
      {"measurement": "first experiment PFU/ml", "setting": "[1]; 50 μM screen", "result": 2200, "unit": "PFU/ml"},
      {"measurement": "second experiment PFU/ml", "setting": "[1]; 50 μM screen", "result": 1400, "unit": "PFU/ml"},
      {"measurement": "Avg PFU/ml", "setting": "[1]; 50 μM screen", "result": 1800, "unit": "PFU/ml"},
      {"measurement": "Influenza virus titer, 50 μM", "setting": "[1]", "result": 2200, "unit": "PFU/virus/ml"}
    ]},
    {"molecule": "COc1ccc(CNCC(F)(F)F)c(OCC(O)CN2CCN(C)CC2)c1", "note": "(centres unmarked) [Compound 18-12]", "values": [
      {"measurement": "first experiment", "setting": "[1]; 10 μM screen", "result": 30000, "unit": "PFU/ml"},
      {"measurement": "second experiment", "setting": "[1]; 10 μM screen", "result": 28000, "unit": "PFU/ml"},
      {"measurement": "Avg PFU/ml", "setting": "[1]; 10 μM screen", "result": 29000, "unit": "PFU/ml"},
      {"measurement": "Influenza virus titer, 10 μM", "setting": "[1]; 10 μM", "result": 30000, "unit": "PFU/virus/ml"},
      {"measurement": "first experiment PFU/ml", "setting": "[1]; 50 μM screen", "result": 90000, "unit": "PFU/ml"},
      {"measurement": "second experiment PFU/ml", "setting": "[1]; 50 μM screen", "result": 26000, "unit": "PFU/ml"},
      {"measurement": "Avg PFU/ml", "setting": "[1]; 50 μM screen", "result": 58000, "unit": "PFU/ml"},
      {"measurement": "Influenza virus titer, 50 μM", "setting": "[1]", "result": 90000, "unit": "PFU/virus/ml"}
    ]},
    {"molecule": "COc1ccccc1Cn1cc(C(=O)NCCC2=CCCCC2)c(=O)c(C(=O)N(CCO)C(C)C)c1", "note": "[Compound 55345532, N′-[2-(1-cyclohexen-1-yl)ethyl]-N-(2-hydroxyethyl)-N-isopropyl-1-(2-methoxybenzyl)-4-oxo-1,4-dihydro-3,5-pyridinedicarboxamide]", "values": [
      {"measurement": "Flu titer (pfu/ml)", "setting": "[1]; 1 μM compound, A549 cells", "result": 55000, "unit": "pfu/ml"},
      {"measurement": "Flu titer (pfu/ml)", "setting": "[1]; 10 μM compound, A549 cells", "result": 70000, "unit": "pfu/ml"},
      {"measurement": "Flu titer (pfu/ml)", "setting": "[1]; 50 μM compound, A549 cells", "result": 34000, "unit": "pfu/ml"}
    ]},
    {"molecule": "CC1=C(C(=O)OC2CCCCCCC2)C(c2ccc3c(c2)OCO3)NC(=O)N1", "note": "(centres unmarked) [UMB115]", "values": [
      {"measurement": "10 μM treatment, Average", "setting": "[1]", "result": 3500},
      {"measurement": "10 μM treatment", "setting": "[1]; replicate 2", "result": 5000},
      {"measurement": "50 μM treatment Average", "setting": "[1]; 50 μM compound", "result": 0},
      {"measurement": "50 μM treatment", "setting": "[1]; [4]", "result": 0},
      {"measurement": "50 μM treatment", "setting": "[1]; 50 μM compound, replicate 2", "result": 0}
    ]},
    {"molecule": "COc1ccc(C2NC(=O)NC(C)=C2C(=O)NCC2CCCCC2)cc1OC", "note": "(centres unmarked) [SILCS63]", "values": [
      {"measurement": "Relative cell count to DMSO controls, Average 1 μM", "setting": "[2]; 1 μM, toxicity data, 100=DMSO control", "result": 106.9},
      {"measurement": "Relative cell count to DMSO controls, Average 5 μM", "setting": "[2]; 5 μM, toxicity data, 100=DMSO control", "result": 114.55},
      {"measurement": "Relative cell count to DMSO controls, Average 10 μM", "setting": "[2]; 10 μM, toxicity data, 100=DMSO control", "result": 101.91},
      {"measurement": "Relative cell count to DMSO controls, Average 25 μM", "setting": "[2]; 25 μM, toxicity data, 100=DMSO control", "result": 91.46},
      {"measurement": "Relative cell count to DMSO controls, Average 50 μM", "setting": "[2]; 50 μM, toxicity data, 100=DMSO control", "result": 78.57},
      {"measurement": "Relative cell count to DMSO controls, Average (for correlation analysis)", "setting": "[2]; average value over the 5 tested concentrations (1 to 50 uM)", "result": 98.68},
      {"measurement": "Percentage Inhibition Average 1 μM", "setting": "[3]; SARS2, 1 μM", "result": 19.08, "unit": "%"},
      {"measurement": "Screening data (Relative infection to DMSO controls) Average 1 μM", "setting": "[3]; SARS2, 1 μM, 100=DMSO control", "result": 80.92},
      {"measurement": "Percentage Inhibition Average 5 μM", "setting": "[3]; SARS2, 5 μM", "result": 53.97, "unit": "%"},
      {"measurement": "Screening data (Relative infection to DMSO controls) Average 5 μM", "setting": "[3]; SARS2, 5 μM, 100=DMSO control", "result": 46.03},
      {"measurement": "Percentage Inhibition Average 10 μM", "setting": "[3]; SARS2, 10 μM", "result": 7.81, "unit": "%"},
      {"measurement": "Screening data (Relative infection to DMSO controls) Average 10 μM", "setting": "[3]; SARS2, 10 μM, 100=DMSO control", "result": 92.19},
      {"measurement": "Percentage Inhibition Average 25 μM", "setting": "[3]; SARS2, 25 μM", "result": "−18.04", "unit": "%"},
      {"measurement": "Screening data (Relative infection to DMSO controls) Average 25 μM", "setting": "[3]; SARS2, 25 μM, 100=DMSO control", "result": 118.04},
      {"measurement": "Percentage Inhibition Average 50 μM", "setting": "[3]; SARS2, 50 μM", "result": "−21.48", "unit": "%"},
      {"measurement": "Screening data (Relative infection to DMSO controls) Average 50 μM", "setting": "[3]; SARS2, 50 μM, 100=DMSO control", "result": 121.48},
      {"measurement": "Average (relative infection to DMSO over the 5 tested concentrations)", "setting": "[3]; SARS2, average over 1 to 50 uM, 100=DMSO control", "result": 91.73}
    ]}
  ]
}
